The text below walks through data of patent US8273775B2, “Non-steroidal brassinosteroid mimetic” (priority 2006, dated 2012).

For assay [1], the system named is bri1-116 plants grown in soil. In words: Rescue of soil-grown mutants by watering. Type of assay: in vivo, Arabidopsis thaliana. Particulars: watered with 2 ml 300 μM ABRASIN per day. The protocol:
FIG. 15: Phenotype rescue of brit-116 and cpd mutants. (A.) The mutant and Col-0 plants were germinated on MS+DMSO medium till day 5 and afterwards transferred on MS supplemented with DMSO, 1 μM BL or 30 μM ABRASIN until day 11. Treatment with BL rescues the cpd mutant phenotype but not bri1-116 while ABRASIN rescues both mutants. […] BL: brassinolide; BIK: abrasin.
Col-0, the null BR signaling bri1-116 (Friedrichsen et al., 2000) and BR biosynthetic cpd (Szekeres et al., 1996) mutants were subjected to phenotype rescue analysis by treatments with BL and ABRASIN. As a negative control, dimethylsulfoxide (DMSO) was used. Plants were germinated in vitro for 5 days on ½ MS containing DMSO medium and from day 6th to day 11th they were transferred on medium supplemented with BL (10 nM, 100 nM, 1000 nM), ABRASIN (5 μM, 10 μM, 30 μM) or DMSO. Cotyledons and leaves were collected for flowcytometric analysis at the 11th day (i.e. 6 days of treatments). Samples for β-glucuronidase (GUS) assay were taken on day 6th (i.e. 1 day treatments), 8th (i.e. 3 days treatments), 10th (i.e. 5 days treatments). Rescue of soil-grown mutants at different growth stages was checked by watering bri1-116 and cpd mutants with either BL or 2 ml 300 μM ABRASIN per day.

The target in the next assay is T1, BIN2 kinase (Arabidopsis thaliana, UniProt Q39011).
T1 sequence (Q39011 1-380): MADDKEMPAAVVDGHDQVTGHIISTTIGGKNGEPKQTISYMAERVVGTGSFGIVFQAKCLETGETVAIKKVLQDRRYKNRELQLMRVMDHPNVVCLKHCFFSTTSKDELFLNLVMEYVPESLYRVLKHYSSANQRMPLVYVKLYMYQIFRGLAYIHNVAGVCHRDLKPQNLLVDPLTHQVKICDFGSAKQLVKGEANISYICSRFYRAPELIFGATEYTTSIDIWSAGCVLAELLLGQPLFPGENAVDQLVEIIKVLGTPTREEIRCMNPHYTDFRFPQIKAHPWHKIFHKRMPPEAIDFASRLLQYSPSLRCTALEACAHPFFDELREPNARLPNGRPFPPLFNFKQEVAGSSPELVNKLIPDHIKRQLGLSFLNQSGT
The assay can be described thus: In vitro kinase assay GST-BIN2 with MBP-BES1. Format: biochemical. As for the experimental part: (§1) Coomassie staining was used as a loading control. b, Autoradiography of kinase assays with nine ASKs with MBP as a substrate in the presence or absence of 10 μM abrasin. The second member of group IV, ASKκ, had no kinase activity and was not included in the analysis. c, Autoradiography of kinase assays with AtMPK4, AtMPK6 and MBP as a substrate (left) and with AtAUR1 kinase and histone H3 as a substrate (right) in the presence or absence of 10 μM abrasin.
For in vitro kinase assays, MBP, MBP-BES1, and MBP-bes1 (20 ng each) were incubated with GST-BIN2 or GST-BRI1 kinase (200 ng each) in 20 μl of kinase buffer (20 mM Tris [pH 7.5], 100 mM NaCl, and 12 mM MgCl2) and 10 μCi ^32P-γATP. After incubation at 37° C. for 40 min, the reactions were stopped by adding 20 μl of 2×SDS buffer and boiling at 94° C. for 5 min. Proteins were resolved by a PAGE gel and phosphorylation was detected by exposing the dried gel to X-ray film. Proteins from 35S::bes1-GFP transgenic plants were used for phosphatase (CIP) treatments as described (Fankhauser et al., 1999).

A further assay has as its target T2, GST-BIN2 (Arabidopsis thaliana, UniProt Q39011).
T2 sequence (Q39011 1-380): T1 sequence (Q39011 1-380)
The assay can be described thus: SPR analysis of binding to immobilized GST-BIN2. As for the experimental part: FIG. 13: Abrasin directly interacts with BIN2. SPR sensorgrams for abrasin binding to GST-BIN2 after injection of different abrasin concentrations as indicated. […] Reference and blank data are subtracted. The experiment was performed in triplicate. Biacore T100 was used to analyze interaction of abrasion with BIN2. Using amine coupling, purified GST-BIN2 was immobilized in the flow cell of a Series S CM5 Sensor Chip (Research Grade, Biacore AB). HBS-EP (Biacore AB) was used as running buffer, flow rate was set at 5 μl/min. The surface of the chip was activated by injecting a mixture of EDC (0.2 M) and NHS (0.05 M) for 10 min. Subsequently, 20 μg/ml GST-BIN2 in 10 mM sodium acetate buffer (pH 6.0) was injected for 20 min. The immobilization level of GST-BIN2 was≈20,000 RU. The chip was then flushed with 1 M ethanolamine (pH 8.5) for 10 min to deactivate the surface. A flow cell treated with a cycle of activation and deactivation without immobilized ligand was used as a reference. […] Different concentrations of abrasin were injected at a flow rate of 30 μl/min over the reference and the GST-BIN2 flow cell for 90 s, followed by 180 s of buffer flow (dissociation phase). Zero concentration samples were used as blanks. The flow cell temperature was set to 25° C.
(In SPR one partner is held on a chip, and binding of the other changes the refractive index at the surface.)

Assay [2] concerns group I GSK-3 kinases (ASKs). The assay can be described thus: ASK kinase assay with MBP as substrate, group I. Particulars: 10 μM abrasin. Type of assay: biochemical, Arabidopsis. The protocol:
as §1
(§2) For in vitro kinase assays, MBP, MBP-BES1, and MBP-bes1 (20 ng each) were incubated with GST-BIN2 or GST-BRI1 kinase (200 ng each) in 20 μl of kinase buffer (20 mM Tris [pH 7.5], 100 mM NaCl, and 12 mM MgCl2) and 10 μCi ^32P-γATP. After incubation at 37° C. for 40 min, the reactions were stopped by adding 20 μl of 2×SDS buffer and boiling at 94° C. for 5 min. Proteins were resolved by a PAGE gel and phosphorylation was detected by exposing the dried gel to X-ray film. […]
(§3) Besides BIN2, nine additional GSK-3 kinases (also designated ASKs for Arabidopsis SHAGGY-related kinases) divided into four subgroups (I-IV) have been identified in Arabidopsis (Jonak and Hirt, 2002; Yoo et al. 2006). To determine the specificity of abrasin, its effect on the kinase activity of all ASKs was analyzed with myelin basic protein (MBP) as a general substrate. […]

Another assay deals with T3, AtAUR1 (Arabidopsis thaliana, UniProt Q9M077).
T3 sequence (Q9M077 1-294): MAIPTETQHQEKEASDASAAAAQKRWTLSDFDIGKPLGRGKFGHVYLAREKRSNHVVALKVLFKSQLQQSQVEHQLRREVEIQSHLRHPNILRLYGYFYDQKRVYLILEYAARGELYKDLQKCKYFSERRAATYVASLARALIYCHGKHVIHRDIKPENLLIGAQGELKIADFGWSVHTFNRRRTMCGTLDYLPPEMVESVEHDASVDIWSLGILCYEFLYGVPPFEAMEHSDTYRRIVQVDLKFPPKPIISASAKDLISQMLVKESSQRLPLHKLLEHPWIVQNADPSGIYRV
In words: Kinase assay with AtAUR1 and histone H3 as substrate. Format: biochemical. Particulars: 10 μM abrasin. As for the experimental part:
as §1, §2, §3

In general, Kd refers to the equilibrium constant for the complex coming apart. Higher therefore signals a looser complex. Turning to `O=C(O)CCC(=O)Nc1ccc(Br)cn1` [abrasin, 4-[(5-bromo-2-pyridinyl)amino]-4-oxobutanoic acid], the “phenotype change of soil-grown mutant” value in assay [1] is on record as “sufficient to slightly change the phenotype of 1 month-old bri1-116 plants in a week”. For the same compound, the “concentration at which inhibitory effect was already apparent” value on BIN2 kinase was “lower than 2.5 μM”. In addition, on BIN2 kinase (0 to 10 μM), the “BIN2 kinase activity towards its substrate BES1” value is recorded as “strongly reduced BIN2 kinase activity towards its substrate BES1 in a dose-dependent manner”. The “inhibitory effect on BIN2 kinase activity” value against BIN2 kinase (at 10 μM) was “dramatic”. For the same compound, the “concentration from which a clear SPR response starts” value on GST-BIN2 is ≥ 10 µM. On GST-BIN2 (1:1 interaction model, 25° C.), this compound registered a Kd of 199 µM and a kd of 0.081 s⁻¹. Also, on GST-BIN2 (1:1 interaction model, 25° C., read-out: ka), the kon came to 407 M⁻¹ s⁻¹. In assay [2], the residual activity is 6-8%. Also, the “effect on kinase activity” value at AtAUR1 is “no effect”.
